# Laboratory results taken from US10472663B2, “Procedure for the rapid determination of bacterial susceptibility to antibiotics that inhibit protein synthesis” (ABM TECHNOLOGIES, LLC, priority 2015, dated 2019).
# Tests used:
# Enterococcus faecalis [1] = assay: Variant Micromax assay of cell lysis by lysozyme after erythromycin (Example 6); assay type: cell-based; details: for lysed cells: erythromycin 0.5 μg/ml 75 min, lysozyme 1 mg/ml during last 10 min
# Protocol: (§1) As an example, two strains of Enterococcus faecalis exponentially growing in Mueller-Hinton broth were incubated under four different conditions and then assayed. […] Each strain was subjected to four treatments for the purpose of rapidly distinguishing the susceptible and the resistant strain to erythromycin.
# The dose was that indicated by the CLSI as the breakpoint of susceptibility to erythromycin in the standard antibiogram based on microdilution. Another portion of both strains was incubated with lysozyme 1 mg/ml, 10 min at 37° C. […]
# After incubation with lysozyme, the cells were processed using a variant of the Micromax technology to visualize the nucleoids, i.e. spreading of the bacterial chromosomal DNA, in all the cells of the population. Samples from the cultures were immersed in an agarose microgel on a slide and incubated with a specific lysing solution to remove the cell wall in all the cells and release in the microgel the nucleoids contained inside the bacteria. These are dried, stained with a highly sensitive fluorochrome for DNA like SYBR Gold and visualized under fluorescence microscopy.
# Enterococcus faecalis [2] = assay: MIC, standard antibiogram based on microdilution; assay type: cell-based
# Protocol: (§2) A quantitative method may rely on dilution in a series of broths or agar solutions having progressively lower concentrations of the antibiotic in question. The lowest concentration of antibiotic in which the bacteria cannot grow provides the minimum inhibitory concentration of that antibiotic to the tested strain of bacteria. This quantitative method may be routinely employed in the hospitals, usually using commercial panels of antibiotics and semi-automated systems of incubation and software for data interpretation like the MicroScan WalkAway™ (Siemens), Phoenix (Becton Dickinson), or Vitek™ 2 (bioMérieux). With such growth-dependent automated systems, results of susceptibility or resistance to antimicrobians from a specific microorganism may be obtained in around 6-9 hours.
# as §1
# S. pneumoniae [3] = assay: MIC, standard antibiogram based on microdilution; assay type: cell-based; details: Streptococcus pneumoniae
# Protocol: as §2
# (§3) In an exemplification of this principal, two strains of S. pneumoniae growing in Mueller-Hinton II broth complemented with cations and 2-5% lysed horse blood, at 37° C. with 5% CO2, were assayed. […] The purpose of the assay was to distinguish rapidly the susceptible and the resistant (i.e. non-susceptible) strain to azithromycin.
# Staphylococcus aureus = assay: Micromax assay of DNA fragmentation by DNase released with lysostaphin after azithromycin (Example 3); assay type: cell-based; details: for DNA fragmentation of released nucleoids: azithromycin 2 μg/ml 120 min followed by lysostaphin 10 μg/ml 1 min
# Protocol: In an exemplification of this principal, two strains of S. aureus growing in Mueller-Hinton agar with 5% sheep blood were assayed. One strain was susceptible to the macrolide azithromycin (an inhibitor of protein synthesis) (FIGS. 13-15) and the other strain was a clinical isolate resistant to azithromycin (FIGS. 16-18). The purpose was to rapidly distinguish susceptible and non-susceptible strains to azithromycin. Cultures were processed direct from standard growing agar plates 18-24 h and it was not necessary the cells being exponentially growing previously to the assay.
# Each of these strain was subjected to four treatments. One portion of both strains was incubated with azithromycin at 2 μg/ml for 120 min; 2 μg/ml being indicated by the CLSI as the breakpoint of susceptibility to azithromycin. The cells were then lysed to release nucleoids and images of FIGS. 13 and 16 were generated. Another portion of each strain was incubated with lysostaphin at 10 μg/ml for 1 min. FIGS. 14 and 17 depict the nucleoids released in each strain for this treatment. Still another portion was incubated with Azithromycin at 2 μg/ml for 120 min followed by lysostaphin at 10 μg/ml for 1 min, without removing the azithromycin. The assays for these treatments can be seen at FIGS. 15 and 18. A final portion was left without either antibiotic.
# After the incubation, the cells were processed using the variant of a Micromax technology to lyse cells with affected cell walls. As indicated previously, samples from cells from the culture are immersed in an agarose microgel on a slide and incubated with a specific lysing solution to remove the cell wall in those cells affected by lysostaphin and release in the microgel the nucleoids contained inside the bacteria. These are dried, stained with a highly sensitive fluorochrome for DNA like SYBR Gold and visualized under fluorescence microscopy.
# H. influenzae = assay: Cell enlargement by low-dose mitomycin C after azithromycin; assay type: cell-based, Haemophilus influenzae; details: azithromycin 4 μg/ml 30 min followed by mitomycin C 0.5 μg/ml 120 min; azithromycin-resistant strain
# Protocol: In one exemplification, two strains of H. influenzae exponentially growing in Mueller-Hinton broth were incubated under four differing treatments and then assayed. One strain was susceptible and the other resistant to the macrolide azithromycin (an inhibitor of protein synthesis). For the purpose of rapidly distinguishing the susceptible and the resistant strain to azithromycin each strain was incubated under four sets of conditions.
# A portion of each strain was incubated with azithromycin at 4 μg/ml for 150 minutes. The dose azithromycin corresponded to the dose indicated by the CLSI as the breakpoint of susceptibility to azithromycin in the standard antibiograms based on microdilution. Another portion of each strain was incubated with Mitomycin C at 0.5 μg/ml for 120 minutes. Still another portion was incubated with azithromycin at 4 μg/ml for 30 min followed by mitomycin C at 0.5 μg/ml for 120 min, without removing the azithromycin. A final portion of each strain was not incubated with any antibiotics.
# S. pneumoniae [4] = assay: Micromax assay of autolysis and DNA fragmentation induced by Triton-lysozyme-EDTA after azithromycin (Example 4); assay type: cell-based, Streptococcus pneumoniae; details: for cells lysed and with fragmented DNA: azithromycin 0.5 μg/ml 60 min followed by Triton-lysozyme-EDTA 5 min; for less fragmentation than incubation with Triton-lysozyme-EDTA alone: azithromycin 0.5 μg/ml 60 min followed by Triton-lysozyme-EDTA
# Protocol: as §3
# Each of these two strains were subjected to four treatments. A first portion of both strains was incubated with azithromycin at a concentration of 0.5 μg/ml for 60 min. The dose was that indicated by the CLSI as the breakpoint of susceptibility to azithromycin in the standard antibiogram based on microdilution. Another portion of both strains was incubated with 0.05% Triton X-100, 2 mg/ml lysozyme, 25 mM EDTA, 5 min. Still another portion of each strain was incubated with azithromycin at 0.5 μg/ml for 60 min followed by 0.05% Triton X-100, 2 mg/ml lysozyme, 25 mM EDTA, 5 min, without removing the azithromycin. A final portion of each strain remained without any antibiotics.
# After incubation cells were processed using the variant of the Micromax technology to visualize the nucleoids. In the same manner indicated previously, samples from cells from the culture are immersed in an agarose microgel on a slide and incubated with a specific lysing solution to remove the cell wall in all the cells and release in the microgel the nucleoids contained inside the bacteria. […] The microgels are dried, stained with a high sensitive fluorochrome for DNA like SYBR Gold and visualized under fluorescence microscopy.
# [5] = erythromycin-susceptible strain
# [6] = azithromycin-susceptible strain
MIC (S. pneumoniae [3]; azithromycin-resistant strain),MIC (S. pneumoniae [3]; [6]),Compound,lysed cells (Enterococcus faecalis [1]; erythromycin-resistant strain),lysed cells (Enterococcus faecalis [1]; [5]),response pattern in further Enterococcus strains (Enterococcus faecalis [1]; four more erythromycin-susceptible and thirteen more erythromycin-resistant strains),MIC (Enterococcus faecalis [2]; erythromycin-resistant strain),MIC (Enterococcus faecalis [2]; [5]),DNA fragmentation of released nucleoids (Staphylococcus aureus; azithromycin-resistant clinical isolate),DNA fragmentation of released nucleoids (Staphylococcus aureus; [6]),"modification of the appearance of the bacteria (Staphylococcus aureus; azithromycin alone 2 μg/ml 120 min, both strains)",cell enlargement (H. influenzae),cells lysed and with fragmented DNA (S. pneumoniae [4]; resistant strain),cells lysed and with fragmented DNA (S. pneumoniae [4]; susceptible strain),less fragmentation than incubation with Triton-lysozyme-EDTA alone (S. pneumoniae [4]; resistant strain),less fragmentation than incubation with Triton-lysozyme-EDTA alone (S. pneumoniae [4]; susceptible strain),"modification of the bacteria (S. pneumoniae [4]; azithromycin alone 0.5 μg/ml 60 min, both strains)"
,,CC[C@H]1OC(=O)[C@H](C)[C@@H](O[C@H]2C[C@@](C)(OC)[C@@H](O)[C@H](C)O2)[C@H](C)[C@@H](O[C@@H]2O[C@H](C)C[C@H](N(C)C)[C@H]2O)[C@](C)(O)C[C@@H](C)C(=O)[C@H](C)[C@@H](O)[C@]1(C)O [erythromycin],96.77%,3.87%,a similar response pattern has been reproduced,> 128 µg/mL,0.125 µg/mL,,,,,,,,,
> 32 µg/mL,0.25 µg/mL,CC[C@H]1OC(=O)[C@H](C)[C@@H](O[C@H]2C[C@@](C)(OC)[C@@H](O)[C@H](C)O2)[C@H](C)[C@@H](O[C@@H]2O[C@H](C)C[C@H](N(C)C)[C@H]2O)[C@](C)(O)C[C@@H](C)CN(C)[C@H](C)[C@@H](O)[C@]1(C)O [azithromycin],,,,,,a large extend of DNA fragmentation,strongly reduced level of DNA fragmentation or even suppression of DNA fragmentation,did not result in modification of the appearance of the bacteria,the bacteria appeared enlarged,86%,about 40%,7%,44%,did not result in modification of the bacteria
